Experimental data: ChEMBL document CHEMBL1139817, “Synthesis and anti-inflammatory activity of 3-(4'-geranyloxy-3'-methoxyphenyl)-2-trans propenoic acid and its ester derivatives” (2007)

Tested on: Mus musculus
Experiment: Antiinflammatory activity in CD1 mouse assessed as inhibition of croton oil-induced ear oedema at 0.3 umol/cm^2 after 6 hrs
Format: functional
Parameters: scale not given: the % may be the effect or the level left

Row | SMILES | Activity [%]
1 | COc1cc(/C=C/C(=O)O)ccc1OC/C=C(\C)CCC=C(C)C | 41
2 | COC(=O)c1ccccc1OC(=O)/C=C/c1ccc(OC/C=C(\C)CCC=C(C)C)c(OC)c1 | 42
3 | COc1cc(/C=C/C(=O)Oc2ccc3ccc(=O)oc3c2)ccc1OC/C=C(\C)CCC=C(C)C | 38
4 | COC(=O)/C=C/c1ccc(OC(=O)/C=C/c2ccc(OC/C=C(\C)CCC=C(C)C)c(OC)c2)c(OC)c1 | 43
5 | COC(=O)c1ccc(OC(=O)/C=C/c2ccc(OC/C=C(\C)CCC=C(C)C)c(OC)c2)c(OC)c1 | 29
6 | COc1cc(/C=C/C(=O)Oc2ccccc2OC)ccc1OC/C=C(\C)CCC=C(C)C | 49
7 | COc1cc(/C=C/C(=O)Oc2ccc3c(c2)C(=O)c2ccc(OC(=O)/C=C/c4ccc(OC/C=C(\C)CCC=C(C)C)c(OC)c4)cc2C3=O)ccc1OC/C=C(\C)CCC=C(C)C | 43
8 | COc1cc(/C=C/C(=O)OC2=CC(=O)c3ccccc3C2=O)ccc1OC/C=C(\C)CCC=C(C)C | 43
9 | COC(=O)/C=C/c1ccc(OC(=O)/C=C/c2ccc(OC/C=C(\C)CCC=C(C)C)c(OC)c2)c(OC(=O)/C=C/c2ccc(OC/C=C(\C)CCC=C(C)C)c(OC)c2)c1 | 38
10 | COc1cc(/C=C/C(=O)Oc2ccc(OC(=O)/C=C/c3ccc(OC/C=C(\C)CCC=C(C)C)c(OC)c3)cc2)ccc1OC/C=C(\C)CCC=C(C)C | 57
11 | COc1cc(/C=C/C(=O)Oc2ccc(NC(C)=O)cc2)ccc1OC/C=C(\C)CCC=C(C)C | 51
12 | CC(=O)Nc1ccc(O)cc1 [ACETAMINOPHEN] | 13
13 | O=C1c2ccc(O)cc2C(=O)c2ccc(O)cc21 [ANTHRAFLAVICACID] | 22
14 | O=C(O)/C=C/c1ccc(O)c(O)c1 [CAFFEIC ACID] | 6
15 | COc1cc(/C=C/C(=O)O)ccc1O [FERULATE] | 16
16 | COc1ccccc1O [GUAIACOL] | 10
17 | Oc1ccc(O)cc1 [HYDROQUINONE] | 4
18 | COc1ccc2c(c1)c(CC(=O)O)c(C)n2C(=O)c1ccc(Cl)cc1 [INDOMETHACIN] | 62
19 | O=C1C=C(O)C(=O)c2ccccc21 [LAWSONE] | 23
20 | O=C1C[C@@H](c2ccc(O)cc2)Oc2cc(O)cc(O)c21 [NARINGENIN] | 43
21 | O=C(O)c1ccccc1O [SALICYLIC ACID] | 13
22 | O=c1ccc2ccc(O)cc2o1 [UMBELLIFERONE] | 23
23 | COc1cc(C(=O)O)ccc1O [VANILLIC ACID] | 20
